The source of these data is patent US9242996B2 (Novartis AG, priority 2013, dated 2016).

Sequence of activated ERK2 (P28482 whole entry): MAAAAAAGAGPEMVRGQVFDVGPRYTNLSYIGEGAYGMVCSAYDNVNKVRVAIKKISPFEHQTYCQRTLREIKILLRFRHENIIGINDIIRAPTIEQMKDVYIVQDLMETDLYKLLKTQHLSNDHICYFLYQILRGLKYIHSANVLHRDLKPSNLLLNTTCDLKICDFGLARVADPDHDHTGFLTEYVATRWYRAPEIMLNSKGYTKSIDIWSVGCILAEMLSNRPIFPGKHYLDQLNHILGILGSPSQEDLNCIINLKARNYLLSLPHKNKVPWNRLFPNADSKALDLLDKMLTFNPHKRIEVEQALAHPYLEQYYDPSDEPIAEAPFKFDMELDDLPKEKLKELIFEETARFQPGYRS

The experiment has as its target activated ERK2 (Homo sapiens (Human), UniProt P28482). Nature of the experiment: Activated ERK2 kinase assay, ERK2 New conditions (AlphaScreen, ERKtide phosphorylation). Format: biochemical. The settings on record: 0.25 nM ERK2, 200 nM ERKtide peptide, 35 μM ATP, 30 min preincubation. The method in brief: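 0.25 nM ERK2 preincubated 30 min with compound, then reacted 2–3 h at ambient temperature with 200 nM ERKtide and 35 µM ATP (final) in HEPES pH 7.5 buffer. EDTA stop; phospho-peptide detected by AlphaScreen after overnight incubation; IC50 from four-parameter fit.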
What is called IC50 is the concentration needed to halve the response being measured. In turn, `Cn1cc(-c2cnc(N)c(-c3ccc(C(=O)N[C@H](CO)c4ccccc4)c(F)c3)c2)c(C(F)(F)F)n1` [Example 168, (S)-4-(2-amino-5-(1-methyl-3-(trifluoromethyl)-1H-pyrazol-4-yl)pyridin-3-yl)-2-fluoro-N-(2-hydroxy-1-phenylethyl)benzamide] returned an IC50 of 5.13 nM.
As for `Cc1c(-c2cnc(N)c(-c3ccc(C(=O)N[C@H](CO)c4ccccc4)c(F)c3)c2)cnn1C` [Example 170, (S)-4-(2-amino-5-(1,5-dimethyl-1H-pyrazol-4-yl)pyridin-3-yl)-2-fluoro-N-(2-hydroxy-1-phenylethyl)benzamide], the figure is 1.58 nM; as for `COCCn1cc(-c2cnc(N)c(-c3ccc(C(=O)N[C@H](CO)c4ccccc4)c(F)c3)c2)cn1` [Example 171, (S)-4-(2-amino-5-(1-(2-methoxyethyl)-1H-pyrazol-4-yl)pyridin-3-yl)-2-fluoro-N-(2-hydroxy-1-phenylethyl)benzamide], 1.09 nM.
`NC[C@@H](NC(=O)c1ccc(-c2nc(C3CCC(F)(F)CC3)cnc2N)cc1F)c1cccc(Cl)c1` [Example 197, (S)—N-(2-amino-1-(3-chlorophenyl)ethyl)-4-(3-amino-6-(4,4-difluorocyclohexyl)pyrazin-2-yl)-2-fluorobenzamide] displayed an IC50 of 2.1 nM.
Take `Nc1ncc([C@H]2CC[S@+]([O-])CC2)cc1-c1ccc(C(=O)N[C@H](CO)c2cccc(Cl)c2)c(F)c1` [Example 211, 4-(2-amino-5-((1S,4r)-1-oxidotetrahydro-2H-thiopyran-4-yl)pyridin-3-yl)-N—((S)-1-(3-chlorophenyl)-2-hydroxyethyl)-2-fluorobenzamide]: the IC50 was found to be 5.44 nM.
As for `Nc1ncc(C2CCSCC2)cc1-c1ccc(C(=O)N[C@H](CO)c2cccc(Cl)c2)c(F)c1` [Example 212, (S)-4-(2-amino-5-(tetrahydro-2H-thiopyran-4-yl)pyridin-3-yl)-N-(1-(3-chlorophenyl)-2-hydroxyethyl)-2-fluorobenzamide], the figure is 0.397 nM; as for `CS(=O)(=O)N1CCCC(c2cnc(N)c(-c3ccc(C(=O)N[C@H](CO)c4ccccc4)c(F)c3)n2)C1` (stereo partly drawn) [Example 213, 4-(3-amino-6-(1-(methylsulfonyl)piperidin-3-yl)pyrazin-2-yl)-2-fluoro-N—((S)-2-hydroxy-1-phenylethyl)benzamide], 11.9 nM.
As for `COC(=O)N1CCCC(c2cnc(N)c(-c3ccc(C(=O)N[C@H](CO)c4ccccc4)c(F)c3)n2)C1` (stereo partly drawn) [Example 214, methyl 3-(5-amino-6-(3-fluoro-4-(((S)-2-hydroxy-1-phenylethyl)carbamoyl)phenyl)pyrazin-2-yl)piperidine-1-carboxylate], the figure is 13.4 nM; as for `CC(=O)N1CCCC(c2cnc(N)c(-c3ccc(C(=O)N[C@H](CO)c4ccccc4)c(F)c3)n2)C1` (stereo partly drawn) [Example 215, 4-(6-(1-acetylpiperidin-3-yl)-3-aminopyrazin-2-yl)-2-fluoro-N—((S)-2-hydroxy-1-phenylethyl)benzamide], 28.5 nM; as for `COC(=O)N1CCCC(c2cnc(N)c(-c3ccc(C(=O)N[C@H](CO)c4cccc(Cl)c4)c(F)c3)n2)C1` (stereo partly drawn) [Example 216, methyl 3-(5-amino-6-(4-(((S)-1-(3-chlorophenyl)-2-hydroxyethyl)carbamoyl)-3-fluorophenyl)pyrazin-2-yl)piperidine-1-carboxylate], 1.81 nM.
Then `CCn1cc(-c2cnc(N)c(-c3ccc(C(=O)N[C@H](CO)c4ccccc4)c(F)c3)n2)cn1` [Example 217, (S)-4-(3-amino-6-(1-ethyl-1H-pyrazol-4-yl)pyrazin-2-yl)-2-fluoro-N-(2-hydroxy-1-phenylethyl) benzamide], with 1.13 nM; and `Nc1ncc(C2CNC(=O)C2)cc1-c1ccc(C(=O)N[C@H](CO)c2ccccc2)c(F)c1` (stereo partly drawn) [Example 218, 4-(2-amino-5-(5-oxopyrrolidin-3-yl)pyridin-3-yl)-2-fluoro-N—((S)-2-hydroxy-1-phenylethyl)benzamide], with 24.2 nM.
